{
  "source": "patent US20130097726A1",
  "about": "“METHODS AND COMPOSITIONS FOR WEED CONTROL” (priority 2011, published 2013)",
  "test_system": "Glyphosate-sensitive Palmer amaranth (A. palmeri R-22) plants",
  "assay": "Topical ssDNA HPPD oligonucleotide mixture with or without mesotrione or atrazine: plant height / growth reduction",
  "type": "in vivo, Amaranthus palmeri",
  "conditions": "twelve days after treatment",
  "procedure": "Glyphosate-sensitive Palmer amaranth (A. palmeri R-22) plants were grown in the greenhouse (30/20 C day/night T; 14 hour photoperiod) in 4 inch square pots containing Sun Gro® Redi-Earth and 3.5 kg/cubic meter Osmocote® 14-14-14 fertilizer. Palmer amaranth plants at 5 to 10 cm in height were pre-treated with a mixture of eight 8 short (21-22mer) single-strand antisense oligo DNA polynucleotides (ssDNAas) targeting HPPD shown in Table 2 as HPPD_OLIGO1-8 (SEQ ID NO: 1083-1090, respectively) at two concentrations, 16 nmol and 80 nmol, formulated in 10 millimolar sodium phosphate buffer (pH 6.8) containing 2% ammonium sulfate and 0.5% Silwet L-77. Plants were treated manually by pipetting 10 μL of polynucleotide solution on four fully expanded mature leaves, for a total of 40 microliters of solution per plant. Twenty-four and forty-eight hours later, the plants were treated with mesotrione (Callisto®, 4 lb ai per gallon; HPPD inhibitor) at 13 g ai/ha, or atrazine (Aatrex® Nine-0®, 90% w/w ai; Photosystem II inhibitor) at 170 g ai/ha using a track-sprayer equipped with a 9501E nozzle and calibrated to deliver 93 liters of solution per hectare. […] Plant height was determined just before ssDNA treatment and at intervals upto twelve days after herbicide treatments to determine effect of the oligonucleotide and herbicide treatments.",
  "data": [
    {"smiles": "CS(=O)(=O)c1ccc(C(=O)C2C(=O)CCCC2=O)c([N+](=O)[O-])c1", "note": "[mesotrione]", "values": [
      {"measurement": "control (growth reduction)", "setting": "mesotrione alone 13 g ai/ha", "result": 48, "unit": "%"}
    ]},
    {"smiles": "CCNc1nc(Cl)nc(NC(C)C)n1", "note": "[atrazine]", "values": [
      {"measurement": "control (growth reduction)", "setting": "atrazine alone 170 g ai/ha", "result": 29, "unit": "%"}
    ]}
  ]
}
